In patent publication US9113629B2, “4-amino-6-(4-substituted-phenyl)-picolinates and 6-amino-2-(4-substituted-phenyl)-pyrimidine-4-carboxylates and their use as herbicides” (DOW AGROSCIENCES LLC, priority 2013, dated 2015):

Test system: not given
Test: not given
Settings: not given

Question: Which melting point does the source give for Nc1c(F)c(-c2ccc(I)c(F)c2F)nc(C(=O)O)c1Cl [Compound 141, 4-amino-3-chloro-6-(2,3-difluoro-4-iodophenyl)-5-fluoropicolinic acid] here?
Answer: 155 to 157 °C

Test system: Key Broadleaf Weed and Crop Species
Test: Post-emergent Test II herbicidal activity (Table 5)
Format: in vivo
Settings: post-emergence, 336 h; ABUTH: velvetleaf (Abutilon theophrasti); application rate 70 g ai/ha; 14 days after application; read-out: Visual Growth Reduction (%) 14 Days After Application, ABUTH
Summary of the method: (§1)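 Injury was rated visually 14 d after treatment on a 0–100% scale against untreated controls. Test compounds, formulated with crop oil concentrate and surfactant and serially diluted down to 1/16× of the top rate, were applied by track sprayer at 187 L/ha onto first- to second-true-leaf seedlings.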

Question: With Nc1c(F)c(-c2ccc(I)c(F)c2F)nc(C(=O)O)c1Cl [Compound 141, 4-amino-3-chloro-6-(2,3-difluoro-4-iodophenyl)-5-fluoropicolinic acid] as the molecule, how does the pest or weed control at 70 g/ha read?
Answer: 85 to 94%

Same assay, conditions: post-emergence, 336 h; ABUTH: velvetleaf (Abutilon theophrasti); application rate 140 g ai/ha; 14 days after application; read-out: Visual Growth Reduction (%) 14 Days After Application, ABUTH

Question: Which pest or weed control at 140 g/ha does the source give for Nc1c(F)c(-c2ccc(I)c(F)c2F)nc(C(=O)O)c1Cl [Compound 141, 4-amino-3-chloro-6-(2,3-difluoro-4-iodophenyl)-5-fluoropicolinic acid] here?
Answer: 85 to 94%

Same assay, conditions: post-emergence, 336 h; AMARE: redroot pigweed (Amaranthus retroflexus); application rate 70 g ai/ha; 14 days after application; read-out: Visual Growth Reduction (%) 14 Days After Application, AMARE

Question: With Nc1c(F)c(-c2ccc(I)c(F)c2F)nc(C(=O)O)c1Cl [Compound 141, 4-amino-3-chloro-6-(2,3-difluoro-4-iodophenyl)-5-fluoropicolinic acid] as the molecule, how does the pest or weed control at 70 g/ha read?
Answer: 95 to 100%

Same assay, conditions: post-emergence, 336 h; AMARE: redroot pigweed (Amaranthus retroflexus); application rate 140 g ai/ha; 14 days after application; read-out: Visual Growth Reduction (%) 14 Days After Application, AMARE

Question: For Nc1c(F)c(-c2ccc(I)c(F)c2F)nc(C(=O)O)c1Cl [Compound 141, 4-amino-3-chloro-6-(2,3-difluoro-4-iodophenyl)-5-fluoropicolinic acid], which pest or weed control at 140 g/ha is on record?
Answer: 95 to 100%

Same assay, conditions: post-emergence, 336 h; BRSNN: oilseed-rape, canola (Brassica napus); application rate 70 g ai/ha; 14 days after application; read-out: Visual Growth Reduction (%) 14 Days After Application, BRSNN

Question: With Nc1c(F)c(-c2ccc(I)c(F)c2F)nc(C(=O)O)c1Cl [Compound 141, 4-amino-3-chloro-6-(2,3-difluoro-4-iodophenyl)-5-fluoropicolinic acid] as the molecule, how does the pest or weed control at 70 g/ha read?
Answer: 95 to 100%

Same assay, conditions: post-emergence, 336 h; BRSNN: oilseed-rape, canola (Brassica napus); application rate 140 g ai/ha; 14 days after application; read-out: Visual Growth Reduction (%) 14 Days After Application, BRSNN

Question: Which pest or weed control at 140 g/ha does the source give for Nc1c(F)c(-c2ccc(I)c(F)c2F)nc(C(=O)O)c1Cl [Compound 141, 4-amino-3-chloro-6-(2,3-difluoro-4-iodophenyl)-5-fluoropicolinic acid] here?
Answer: 95 to 100%

Same assay, conditions: post-emergence, 336 h; CHEAL: lambsquarters (Chenopodium album); application rate 70 g ai/ha; 14 days after application; read-out: Visual Growth Reduction (%) 14 Days After Application, CHEAL

Question: Which pest or weed control at 70 g/ha does the source give for Nc1c(F)c(-c2ccc(I)c(F)c2F)nc(C(=O)O)c1Cl [Compound 141, 4-amino-3-chloro-6-(2,3-difluoro-4-iodophenyl)-5-fluoropicolinic acid] here?
Answer: 85 to 94%

Same assay, conditions: post-emergence, 336 h; CHEAL: lambsquarters (Chenopodium album); application rate 140 g ai/ha; 14 days after application; read-out: Visual Growth Reduction (%) 14 Days After Application, CHEAL

Question: For Nc1c(F)c(-c2ccc(I)c(F)c2F)nc(C(=O)O)c1Cl [Compound 141, 4-amino-3-chloro-6-(2,3-difluoro-4-iodophenyl)-5-fluoropicolinic acid], which pest or weed control at 140 g/ha is on record?
Answer: 85 to 94%

Same assay, conditions: post-emergence, 336 h; EPHHL: wild poinsettia (Euphorbia heterophylla); application rate 70 g ai/ha; 14 days after application; read-out: Visual Growth Reduction (%) 14 Days After Application, EPHHL

Question: Which pest or weed control at 70 g/ha does the source give for Nc1c(F)c(-c2ccc(I)c(F)c2F)nc(C(=O)O)c1Cl [Compound 141, 4-amino-3-chloro-6-(2,3-difluoro-4-iodophenyl)-5-fluoropicolinic acid] here?
Answer: 95 to 100%

Same assay, conditions: post-emergence, 336 h; EPHHL: wild poinsettia (Euphorbia heterophylla); application rate 140 g ai/ha; 14 days after application; read-out: Visual Growth Reduction (%) 14 Days After Application, EPHHL

Question: With Nc1c(F)c(-c2ccc(I)c(F)c2F)nc(C(=O)O)c1Cl [Compound 141, 4-amino-3-chloro-6-(2,3-difluoro-4-iodophenyl)-5-fluoropicolinic acid] as the molecule, how does the pest or weed control at 140 g/ha read?
Answer: 95 to 100%

Same assay, conditions: post-emergence, 336 h; HELAN: sunflower (Helianthus annuus); application rate 70 g ai/ha; 14 days after application; read-out: Visual Growth Reduction (%) 14 Days After Application, HELAN

Question: For Nc1c(F)c(-c2ccc(I)c(F)c2F)nc(C(=O)O)c1Cl [Compound 141, 4-amino-3-chloro-6-(2,3-difluoro-4-iodophenyl)-5-fluoropicolinic acid], which pest or weed control at 70 g/ha is on record?
Answer: 95 to 100%

Same assay, conditions: post-emergence, 336 h; HELAN: sunflower (Helianthus annuus); application rate 140 g ai/ha; 14 days after application; read-out: Visual Growth Reduction (%) 14 Days After Application, HELAN

Question: For Nc1c(F)c(-c2ccc(I)c(F)c2F)nc(C(=O)O)c1Cl [Compound 141, 4-amino-3-chloro-6-(2,3-difluoro-4-iodophenyl)-5-fluoropicolinic acid], which pest or weed control at 140 g/ha is on record?
Answer: 95 to 100%

Same assay, conditions: post-emergence, 336 h; VIOTR: wild pansy (Viola tricolor); application rate 70 g ai/ha; 14 days after application; read-out: Visual Growth Reduction (%) 14 Days After Application, VIOTR

Question: Which pest or weed control at 70 g/ha does the source give for Nc1c(F)c(-c2ccc(I)c(F)c2F)nc(C(=O)O)c1Cl [Compound 141, 4-amino-3-chloro-6-(2,3-difluoro-4-iodophenyl)-5-fluoropicolinic acid] here?
Answer: 95 to 100%

Same assay, conditions: post-emergence, 336 h; VIOTR: wild pansy (Viola tricolor); application rate 140 g ai/ha; 14 days after application; read-out: Visual Growth Reduction (%) 14 Days After Application, VIOTR

Question: For Nc1c(F)c(-c2ccc(I)c(F)c2F)nc(C(=O)O)c1Cl [Compound 141, 4-amino-3-chloro-6-(2,3-difluoro-4-iodophenyl)-5-fluoropicolinic acid], which pest or weed control at 140 g/ha is on record?
Answer: 95 to 100%

Test system: Key Grass and Sedge Weeds as well as Grass Crops
Test: Post-emergent Test II herbicidal activity (Table 6)
Format: in vivo
Settings: post-emergence, 336 h, CYPES: yellow nutsedge (Cyperus esculentus), 70 g ai/ha, read-out: Visual Growth Reduction (%) 14 Days After Application, CYPES
Summary of the method: as §1

Question: For Nc1c(F)c(-c2ccc(I)c(F)c2F)nc(C(=O)O)c1Cl [Compound 141, 4-amino-3-chloro-6-(2,3-difluoro-4-iodophenyl)-5-fluoropicolinic acid], which pest or weed control at 70 g/ha is on record?
Answer: 0 to 29%

Same assay, conditions: post-emergence, 336 h, CYPES: yellow nutsedge (Cyperus esculentus), 140 g ai/ha, read-out: Visual Growth Reduction (%) 14 Days After Application, CYPES

Question: For Nc1c(F)c(-c2ccc(I)c(F)c2F)nc(C(=O)O)c1Cl [Compound 141, 4-amino-3-chloro-6-(2,3-difluoro-4-iodophenyl)-5-fluoropicolinic acid], which pest or weed control at 140 g/ha is on record?
Answer: 95 to 100%

Same assay, conditions: post-emergence, 336 h, DIGSA: crabgrass (Digitaria sanguinalis), 70 g ai/ha, read-out: Visual Growth Reduction (%) 14 Days After Application, DIGSA

Question: With Nc1c(F)c(-c2ccc(I)c(F)c2F)nc(C(=O)O)c1Cl [Compound 141, 4-amino-3-chloro-6-(2,3-difluoro-4-iodophenyl)-5-fluoropicolinic acid] as the molecule, how does the pest or weed control at 70 g/ha read?
Answer: 75 to 84%

Same assay, conditions: post-emergence, 336 h, DIGSA: crabgrass (Digitaria sanguinalis), 140 g ai/ha, read-out: Visual Growth Reduction (%) 14 Days After Application, DIGSA

Question: Which pest or weed control at 140 g/ha does the source give for Nc1c(F)c(-c2ccc(I)c(F)c2F)nc(C(=O)O)c1Cl [Compound 141, 4-amino-3-chloro-6-(2,3-difluoro-4-iodophenyl)-5-fluoropicolinic acid] here?
Answer: 75 to 84%

Same assay, conditions: post-emergence, 336 h, ECHCG: barnyardgrass (Echinochloa crus-galli), 70 g ai/ha, read-out: Visual Growth Reduction (%) 14 Days After Application, ECHCG

Question: For Nc1c(F)c(-c2ccc(I)c(F)c2F)nc(C(=O)O)c1Cl [Compound 141, 4-amino-3-chloro-6-(2,3-difluoro-4-iodophenyl)-5-fluoropicolinic acid], which pest or weed control at 70 g/ha is on record?
Answer: 85 to 94%

Same assay, conditions: post-emergence, 336 h, ECHCG: barnyardgrass (Echinochloa crus-galli), 140 g ai/ha, read-out: Visual Growth Reduction (%) 14 Days After Application, ECHCG

Question: Which pest or weed control at 140 g/ha does the source give for Nc1c(F)c(-c2ccc(I)c(F)c2F)nc(C(=O)O)c1Cl [Compound 141, 4-amino-3-chloro-6-(2,3-difluoro-4-iodophenyl)-5-fluoropicolinic acid] here?
Answer: 95 to 100%

Same assay, conditions: post-emergence, 336 h, ORYSA: rice (Oryza sativa), crop, 70 g ai/ha, read-out: Visual Growth Reduction (%) 14 Days After Application, ORYSA

Question: Which pest or weed control at 70 g/ha does the source give for Nc1c(F)c(-c2ccc(I)c(F)c2F)nc(C(=O)O)c1Cl [Compound 141, 4-amino-3-chloro-6-(2,3-difluoro-4-iodophenyl)-5-fluoropicolinic acid] here?
Answer: 0 to 29%

Same assay, conditions: post-emergence, 336 h, ORYSA: rice (Oryza sativa), crop, 140 g ai/ha, read-out: Visual Growth Reduction (%) 14 Days After Application, ORYSA

Question: With Nc1c(F)c(-c2ccc(I)c(F)c2F)nc(C(=O)O)c1Cl [Compound 141, 4-amino-3-chloro-6-(2,3-difluoro-4-iodophenyl)-5-fluoropicolinic acid] as the molecule, how does the pest or weed control at 140 g/ha read?
Answer: 0 to 29%

Same assay, conditions: post-emergence, 336 h, SETFA: giant foxtail (Setaria faberi), 70 g ai/ha, read-out: Visual Growth Reduction (%) 14 Days After Application, SETFA

Question: For Nc1c(F)c(-c2ccc(I)c(F)c2F)nc(C(=O)O)c1Cl [Compound 141, 4-amino-3-chloro-6-(2,3-difluoro-4-iodophenyl)-5-fluoropicolinic acid], which pest or weed control at 70 g/ha is on record?
Answer: 75 to 84%

Same assay, conditions: post-emergence, 336 h, SETFA: giant foxtail (Setaria faberi), 140 g ai/ha, read-out: Visual Growth Reduction (%) 14 Days After Application, SETFA

Question: Which pest or weed control at 140 g/ha does the source give for Nc1c(F)c(-c2ccc(I)c(F)c2F)nc(C(=O)O)c1Cl [Compound 141, 4-amino-3-chloro-6-(2,3-difluoro-4-iodophenyl)-5-fluoropicolinic acid] here?
Answer: 95 to 100%

Same assay, conditions: post-emergence, 336 h, SORVU: grain sorghum (Sorghum vulgare), 70 g ai/ha, read-out: Visual Growth Reduction (%) 14 Days After Application, SORVU

Question: For Nc1c(F)c(-c2ccc(I)c(F)c2F)nc(C(=O)O)c1Cl [Compound 141, 4-amino-3-chloro-6-(2,3-difluoro-4-iodophenyl)-5-fluoropicolinic acid], which pest or weed control at 70 g/ha is on record?
Answer: 85 to 94%

Same assay, conditions: post-emergence, 336 h, SORVU: grain sorghum (Sorghum vulgare), 140 g ai/ha, read-out: Visual Growth Reduction (%) 14 Days After Application, SORVU

Question: Which pest or weed control at 140 g/ha does the source give for Nc1c(F)c(-c2ccc(I)c(F)c2F)nc(C(=O)O)c1Cl [Compound 141, 4-amino-3-chloro-6-(2,3-difluoro-4-iodophenyl)-5-fluoropicolinic acid] here?
Answer: 85 to 94%

Same assay, conditions: post-emergence, 336 h, TRZSS (wheat, Triticum aestivum), crop, 70 g ai/ha, read-out: Visual Growth Reduction (%) 14 Days After Application, TRZSS

Question: Which pest or weed control at 70 g/ha does the source give for Nc1c(F)c(-c2ccc(I)c(F)c2F)nc(C(=O)O)c1Cl [Compound 141, 4-amino-3-chloro-6-(2,3-difluoro-4-iodophenyl)-5-fluoropicolinic acid] here?
Answer: 60 to 74%

Same assay, conditions: post-emergence, 336 h, TRZSS (wheat, Triticum aestivum), crop, 140 g ai/ha, read-out: Visual Growth Reduction (%) 14 Days After Application, TRZSS

Question: For Nc1c(F)c(-c2ccc(I)c(F)c2F)nc(C(=O)O)c1Cl [Compound 141, 4-amino-3-chloro-6-(2,3-difluoro-4-iodophenyl)-5-fluoropicolinic acid], which pest or weed control at 140 g/ha is on record?
Answer: 60 to 74%

Same assay, conditions: post-emergence, 336 h, ZEAMX: maize, corn (Zea mays), crop, 70 g ai/ha, read-out: Visual Growth Reduction (%) 14 Days After Application, ZEAMX

Question: With Nc1c(F)c(-c2ccc(I)c(F)c2F)nc(C(=O)O)c1Cl [Compound 141, 4-amino-3-chloro-6-(2,3-difluoro-4-iodophenyl)-5-fluoropicolinic acid] as the molecule, how does the pest or weed control at 70 g/ha read?
Answer: 95 to 100%

Same assay, conditions: post-emergence, 336 h, ZEAMX: maize, corn (Zea mays), crop, 140 g ai/ha, read-out: Visual Growth Reduction (%) 14 Days After Application, ZEAMX

Question: With Nc1c(F)c(-c2ccc(I)c(F)c2F)nc(C(=O)O)c1Cl [Compound 141, 4-amino-3-chloro-6-(2,3-difluoro-4-iodophenyl)-5-fluoropicolinic acid] as the molecule, how does the pest or weed control at 140 g/ha read?
Answer: 95 to 100%
